Assay results published in PubChem BioAssay AID248 (DTP/NCI, 2004).
“And” between values parts separate entries of the source, which are not always exact repeats. Equal values may be shown once. Inconclusive results and toxic doses are left out. Cut-off read from the data, not from the text of the source: active = T/C of 150% or more; inactive = T/C below 125%.

System: L1210 leukemia ip in BDF1 mice, survival T/C
Assay: NCI In Vivo Anticancer Drug Screen. Data for tumor model L1210 Leukemia (intraperitoneal) in B6D2F1 (BDF1) mice
Conditions: endpoint: mean survival time, higher = longer survival
Outline: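 Mice bearing the transplanted tumor received compound or vehicle. Survival of the treated group was divided by that of the vehicle-treated control group to give the ratio.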

[1] = dose: 100.0 mg/kg/injection, schedule: Q01DX001 (ip), vehicle: saline
[2] = dose: 100.0 mg/kg/injection, schedule: Q04DX003 (ip), vehicle: saline
[3] = dose: 200.0 mg/kg/injection, schedule: Q01DX001 (ip), vehicle: saline
[4] = dose: 200.0 mg/kg/injection, schedule: Q04DX003 (ip), vehicle: saline
[5] = dose: 400.0 mg/kg/injection, schedule: Q01DX001 (ip), vehicle: saline
[6] = dose: 400.0 mg/kg/injection, schedule: Q04DX003 (ip), vehicle: saline
[7] = dose: 50.0 mg/kg/injection, schedule: Q01DX009 (ip), vehicle: Klucel (hydroxypropylcellulose) (HPC)
[8] = dose: 100.0 mg/kg/injection, schedule: Q04DX003 (ip), vehicle: Klucel (hydroxypropylcellulose) (HPC)
[9] = dose: 100.0 mg/kg/injection, schedule: Q01DX009 (ip), vehicle: Klucel (hydroxypropylcellulose) (HPC)
[10] = dose: 200.0 mg/kg/injection, schedule: Q01DX009 (ip), vehicle: Klucel (hydroxypropylcellulose) (HPC)
[11] = dose: 400.0 mg/kg/injection, schedule: Q01DX009 (ip), vehicle: Klucel (hydroxypropylcellulose) (HPC)

Measured: T/C

NCCCN1CCN(CCCN)CC1
inactive: [1] 98 % of control | dose: 100.0 mg/kg/injection, schedule: Q01DX009 (ip), vehicle: saline 94 % of control and 103 % of control | [2] 97 % of control | [3] 90 % of control | dose: 200.0 mg/kg/injection, schedule: Q01DX009 (ip), vehicle: saline 94 % of control and 97 % of control | [4] 96 % of control | [5] 95 % of control | dose: 400.0 mg/kg/injection, schedule: Q01DX009 (ip), vehicle: saline 100 % of control and 88 % of control | [6] 92 % of control

CCC(C)C(CN)(CCN1CCCCC1)Cc1cccc2ccccc12 (configuration not stated)
inactive: dose: 12.5 mg/kg/injection, schedule: Q04DX003 (ip), vehicle: saline + alcohol 96 % of control | dose: 25.0 mg/kg/injection, schedule: Q04DX003 (ip), vehicle: saline + alcohol 93 % of control | dose: 50.0 mg/kg/injection, schedule: Q04DX003 (ip), vehicle: saline + alcohol 96 % of control

CCCCCCCCC(=O)Cl
inactive: dose: 100.0 mg/kg/injection, schedule: Q04DX002 (ip), vehicle: saline 100 % of control | dose: 200.0 mg/kg/injection, schedule: Q04DX002 (ip), vehicle: saline 100 % of control | dose: 400.0 mg/kg/injection, schedule: Q04DX002 (ip), vehicle: saline 103 % of control

[N-]=[N+]=Nc1ccc(C(=O)O)cc1
inactive: dose: 100.0 mg/kg/injection, schedule: Q01DX001 (ip), vehicle: Klucel (hydroxypropylcellulose) (HPC) 100 % of control | dose: 200.0 mg/kg/injection, schedule: Q01DX001 (ip), vehicle: Klucel (hydroxypropylcellulose) (HPC) 100 % of control | dose: 400.0 mg/kg/injection, schedule: Q01DX001 (ip), vehicle: Klucel (hydroxypropylcellulose) (HPC) 103 % of control

NC(=O)N/N=C1/CCN2CCCc3cccc1c32
inactive: dose: 12.5 mg/kg/injection, schedule: Q01DX009 (ip), vehicle: Klucel (hydroxypropylcellulose) (HPC) 95 % of control | dose: 25.0 mg/kg/injection, schedule: Q01DX009 (ip), vehicle: Klucel (hydroxypropylcellulose) (HPC) 103 % of control | dose: 25.0 mg/kg/injection, schedule: Q04DX003 (ip), vehicle: Klucel (hydroxypropylcellulose) (HPC) 103 % of control | [7] 93 % of control | dose: 50.0 mg/kg/injection, schedule: Q04DX003 (ip), vehicle: Klucel (hydroxypropylcellulose) (HPC) 97 % of control | [8] 95 % of control

COc1ccc(OC)c(NC(=O)Nc2ccc([N+](=O)[O-])cc2OC)c1
inactive: [9] 96 % of control | [10] 93 % of control | [11] 94 % of control

O=C1NC(c2ccccc2Cl)Nc2ccccc21 (configuration not stated)
inactive: [7] 103 % of control | [9] 101 % of control | dose: 150.0 mg/kg/injection, schedule: Q01DX009 (ip), vehicle: Klucel (hydroxypropylcellulose) (HPC) 97 % of control

O=C(O)/C=C(\Cl)c1ccccc1
inactive: dose: 50.0 mg/kg/injection, schedule: Q01DX001 (ip), vehicle: saline 112 % of control | [1] 112 % of control | [3] 104 % of control | [5] 106 % of control

O=C(O)CCC(NC(=O)c1ccccc1)C(=O)O (configuration not stated)
inactive: [2] 100 % of control | [4] 95 % of control | [6] 95 % of control

CCCCCCCCCCCC[N+]1([O-])CCOCC1
inactive: dose: 200.0 mg/kg/injection, schedule: Q04DX002 (ip), vehicle: saline with Tween-80 94 % of control | dose: 400.0 mg/kg/injection, schedule: Q04DX002 (ip), vehicle: saline with Tween-80 102 % of control

CC(=O)OC1CCCC23CC(CC12)C(C)(C)C3Br (configuration not stated)
inactive: [9] 95 % of control | [8] 97 % of control | [10] 100 % of control | dose: 200.0 mg/kg/injection, schedule: Q04DX003 (ip), vehicle: Klucel (hydroxypropylcellulose) (HPC) 93 % of control | [11] 97 % of control | dose: 400.0 mg/kg/injection, schedule: Q04DX003 (ip), vehicle: Klucel (hydroxypropylcellulose) (HPC) 95 % of control

NNC(=O)CCNCCC(=O)NN
inactive: dose: 100.0 mg/kg/injection, schedule: Q04DX002 (ip), vehicle: saline + alcohol 94 % of control | dose: 200.0 mg/kg/injection, schedule: Q04DX002 (ip), vehicle: saline + alcohol 88 % of control
